From patent publication US4419123A, “Herbicidal 4-trifluoromethyl-3'-carbon-substituted-4'-substituted diphenyl ethers” (Rohm and Haas Company, priority 1981, dated 1983) come the findings set out here.

Series [1] can be described thus: Preemergence herbicidal activity (% control) against monocot weeds. Type of series: in vivo. The settings on record: pre-emergence, 336 h, average, read-out: Herbicidal activity (% control), preemergence, monocots. The text has this: (§1) barnyardgrass (Echinochloa crusgalli) crabgrass (Digitaria spp.) nutsedge (Cyperus esculentus)
(§2) At 2 and 4 pounds per acre:
(§3) **Bermudagrass (Cynodon dactylon)
(§4) *downy brome (Bromus tectorum) foxtail (Setaria faberii)
(§5) Johnsongrass (Sorghum halepense) […]
(§6) quackgrass (Agropyron repens)
(§7) *ryegrass (Lolium perenne)
(§8) *wild oats (Avena factua)
(§9) *yellow millet (Panicum miliaceum)
(§10) The following test procedure is employed.

Series [2] is described as follows: Postemergence herbicidal activity (% control) against monocot weeds. The settings on record: post-emergence, 336 h, average, read-out: Herbicidal activity (% control), postemergence, monocots. It is filed as in vivo.
From the text: as §1, §2, §3, §4, §5, §6, §7, §8, §9, §10

The test system of another series is cotton. Description: Crop tolerance (selective herbicidal activity), cotton. It is filed as in vivo. The method, then: as §10
(§11) Following the general test procedure of Example 37, diphenyl ethers are evaluated for significant tolerance (as shown by 50% or less kill of the test crop at levels of application which give more than 50% kill of many or all of the weeds of Example 73) towards some or all of the following common agronomic crops (not all compounds tested against all crops): alfalfa, snapbeans, corn, cotton, cucumbers, peanuts, rape, rice, safflower, soybeans, tomatoes, and wheat.

The next series relates to peanuts. Description: Crop tolerance (selective herbicidal activity), peanuts. Type of series: in vivo. The settings on record: preemergence applications.
A further series has as its system rice. Kind of series: Crop tolerance (selective herbicidal activity), rice. Type of series: in vivo. The settings on record: postemergence applications or applications on transplanted rice.
The test system of a further series is safflower. Description: Crop tolerance (selective herbicidal activity), safflower. Type of series: in vivo. The settings on record: preemergence applications. The method, then: as §10, §11
Another series deals with soybeans. Kind of series: Crop tolerance (selective herbicidal activity), soybeans. Type of series: in vivo.
Series [3] is described as follows: Preemergence herbicidal activity (% control) against dicot weeds. The settings on record: pre-emergence, 336 h.
Series [4] is described as follows: Postemergence herbicidal activity (% control) against dicot weeds. The following applies: post-emergence, 336 h.
Where [5] appears, read: 4 lb./A., about two weeks after application.
Setting [6] is: 10 lb./A., about two weeks after application.
Setting [7] is: postemergence or layby applications.

As for `CCOc1cc(Oc2ccc(C(F)(F)F)cc2Cl)ccc1[N+](=O)[O-]` [Example 3, 2-Chloro-α,α,α-trifluoro-p-tolyl-3-ethoxy-4-nitrophenyl ether], the pest or weed control at 280.212 g/ha in [1] (1/4 lb./A.) was found to be 84%; in [3] (read-out: Herbicidal activity (% control), preemergence, dicots) it was 66%. Further, the activity at 4483.4 g/ha in series [1] (setting [5]) was 89%; in series [2] (setting [5]), 99%; in [3] (read-out: Herbicidal activity (% control), preemergence, dicots, 4 lb./A., average, about two weeks after application), 99%; in series [4] (read-out: Herbicidal activity (% control), postemergence, dicots, 4 lb./A., average, about two weeks after application) it was 100%. Also, the activity at 11208.5 g/ha in [1] (setting [6]) worked out at 99%; in series [2] (setting [6]) it was 100%; in series [3] (read-out: Herbicidal activity (% control), preemergence, dicots, 10 lb./A., average, about two weeks after application) it was 100%; in series [4] (read-out: Herbicidal activity (% control), postemergence, dicots, 10 lb./A., average, about two weeks after application), 100%. The pest or weed control at 560.425 g/ha is 96% in series [2] (1/2 lb./A. (footnote +)) and 97% in series [4] (read-out: Herbicidal activity (% control), postemergence, dicots). Also, the Tolerance to cotton entry in the series on cotton (setting [7]) and with cotton (preemergence applications) was “Tolerance (significant tolerance (as shown by 50% or less kill of the test crop at levels of application which give more than 50% kill of many or all of the weeds of Example 73))” throughout. Moreover, in the series with peanuts, the Tolerance to peanuts result is recorded as “Tolerance (significant tolerance (as shown by 50% or less kill of the test crop at levels of application which give more than 50% kill of many or all of the weeds of Example 73))”. The Tolerance to rice entry with rice was “Tolerance (significant tolerance (as shown by 50% or less kill of the test crop at levels of application which give more than 50% kill of many or all of the weeds of Example 73))”. Besides, the Tolerance to safflower result with safflower is recorded as “Tolerance (significant tolerance (as shown by 50% or less kill of the test crop at levels of application which give more than 50% kill of many or all of the weeds of Example 73))”. The Tolerance to soybeans entry in the series on soybeans (setting [7]) and with soybeans (preemergence applications) was “Tolerance (significant tolerance (as shown by 50% or less kill of the test crop at levels of application which give more than 50% kill of many or all of the weeds of Example 73))” each time.
